According to ChEMBL document CHEMBL4020793 (Bioorg Med Chem Lett, 2017):

Tests used:
Type in all cases: functional, cell-based
[1] = tested on: HCT-116; test: Antiproliferative activity against human HCT116 cells assessed as cell viability after 72 hrs by MTS assay; settings: HCT-116, 72 h
[2] = tested on: HCT-116/VM46; test: Antiproliferative activity against vinblastine-resistant human HCT116/VM46 cells assessed as cell viability after 72 hrs by MTS assay; settings: HCT-116/VM46, 72 h
[3] = tested on: L1210; test: Antiproliferative activity against mouse L1210 cells assessed as cell viability after 72 hrs by MTS assay; settings: L1210, 72 h

| IC50 [1] [nM] | IC50 [2] [nM] | IC50 [3] [nM] | Structure (SMILES) |
| --- | --- | --- | --- |
| 6.3 | 420 | 7.5 | CC[C@]12C=CCN3CC[C@@]4(c5cc([C@@]6(C(=O)OC)C[C@@H]7CN(CCc8c6[nH]c6ccccc86)C[C@](O)(CCF)C7)c(OC)cc5N(C)[C@H]4[C@@](O)(C(=O)OC)[C@@H]1OC(C)=O)[C@@H]32 |
| 6 | 200 | 6 | CC[C@]12C=CCN3CC[C@@]4(c5cc([C@@]6(C(=O)OC)C[C@@H]7CN(CCc8c6[nH]c6ccccc86)C[C@@]6(O)CCCC[C@H]76)c(OC)cc5N(C)[C@H]4[C@@](O)(C(=O)OC)[C@@H]1OC(C)=O)[C@@H]32 |
| 420 | > 1000 | 300 | CCC[C@]1(O)C[C@H]2CN(CCc3c([nH]c4ccccc34)[C@@](C(=O)OC)(c3cc4c(cc3OC)N(C)[C@H]3[C@@](O)(C(=O)OC)[C@H](OC(C)=O)[C@]5(CC)C=CCN6CC[C@]43[C@@H]65)C2)C1 |
| 70 | 3000 | 65 | CC[C@]12C=CCN3CC[C@@]4(c5cc([C@@]6(C(=O)OC)C[C@@H]7CN(CCc8c6[nH]c6ccccc86)C[C@](O)(CCN=[N+]=[N-])C7)c(OC)cc5N(C)[C@H]4[C@@](O)(C(=O)OC)[C@@H]1OC(C)=O)[C@@H]32 |
| > 1000 | > 1000 | > 1000 | CC[C@]12C=CCN3CC[C@@]4(c5cc([C@@]6(C(=O)OC)C[C@@H]7CN(CCc8c6[nH]c6ccccc86)C[C@](O)(CCO)C7)c(OC)cc5N(C)[C@H]4[C@@](O)(C(=O)OC)[C@@H]1OC(C)=O)[C@@H]32 |
| 80 | 8000 | 80 | CC[C@]12C=CCN3CC[C@@]4(c5cc([C@@]6(C(=O)OC)C[C@@H]7CN(CCc8c6[nH]c6ccccc86)C[C@](O)(CCC#N)C7)c(OC)cc5N(C)[C@H]4[C@@](O)(C(=O)OC)[C@@H]1OC(C)=O)[C@@H]32 |
| 790 | > 1000 | 480 | CCCC[C@]1(O)C[C@H]2CN(CCc3c([nH]c4ccccc34)[C@@](C(=O)OC)(c3cc4c(cc3OC)N(C)[C@H]3[C@@](O)(C(=O)OC)[C@H](OC(C)=O)[C@]5(CC)C=CCN6CC[C@]43[C@@H]65)C2)C1 |
| 0.7 | 60 | 0.6 | CC[C@]12C=CCN3CC[C@@]4(c5cc([C@@]6(C(=O)OC)C[C@@H]7CN(CCc8c6[nH]c6ccccc86)C[C@@]6(O)CCCC[C@@H]76)c(OC)cc5N(C)[C@H]4[C@@](O)(C(=O)OC)[C@@H]1OC(C)=O)[C@@H]32 |
